Source: patent publication US12077501B2, “Compounds and compositions for intracellular delivery of agents” (ModernaTX, Inc., priority 2017, dated 2024)

Assays:
[1] = Lipid clearance: % dose remaining in liver of CD-1 mice; assay type: in vivo; details: intravenous, 0.5 mg/kg, CD-1 mouse, Table 8a
Outline: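 Nanoparticle compositions containing the test compound were dosed to CD-1 mice at 0.5 mpk, and hEPO expression was measured. Clearance data were collected from the same compositions.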

hEPO expression = hEPO expression in CD-1 mice compared with MC3; assay type: in vivo; details: intravenous, 0.5 mpk, Table 7e
Description: In contrast, hEPO expression in rats induced by administration of a nanoparticle composition including a compound according to one of formulae (I), (Ia1)-(Ia6), (Ib), (II), (IIa), (III), and (IIIa) was substantially […] than that measured for MC3. […] Tables 7c and 7d show additional protein expressions and clearance data from compositions with various compounds disclosed herein as compared to with MC3. Tables 7e, 7f and 7g show hEPO expression data in CD-1 mice at a dose of 0.5 mpk.

[2] = Encapsulation efficiency of RNA (QUANT-IT RIBOGREEN RNA assay); assay type: physicochemical; details: Table 1c; nanoparticle compositions
Outline: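 Samples diluted to about 5 μg/mL RNA in TE buffer pH 7.5, treated with buffer or 2% Triton X-100 for 15 min at 37° C, then stained with RiboGreen (1:100). Fluorescence at about 480/520 nm, blank-subtracted; free RNA fraction is intact over Triton-disrupted signal.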

[3] = Lipid purity change after storage in EtOH for 96 h at 25 or 37 °C; assay type: physicochemical
Protocol: Nanoparticle compositions including a therapeutic and/or prophylactic agent can be optimized according to the selection of a compound according to one of formulae (I), (Ia1)-(Ia10), (Ib), (Ic), (Id), (Id1)-(Id10), (Ie), (Ie1)-(Ie6), (II), (IIa), (III), and (IIIa), the selection of additional lipids, the amount of each lipid in the lipid component, and the wt:wt ratio of the lipid component to the therapeutic and/or prophylactic agent, as described herein. Initial studies were performed to compare the delivery efficiency of nanoparticle compositions including various compounds according to one of formulae (I), (Ia1)-(Ia10), (Ib), (Ic), (Id), (Id1)-(Id10), (Ie), (Ie1)-(Ie6), (II), (IIa), (III), and (IIIa). The cationic lipid MC3 is a current standard in the art. Also determined was the stability of nanoparticles of the disclosure, i.e., the purity after storage in EtOH for 96h at 25° C. or 37° C. (Table Id).

[4] = Particle size and polydispersity index of nanoparticle compositions (Zetasizer Nano ZS); assay type: physicochemical; details: Table 1c; nanoparticle compositions
Protocol: A Zetasizer Nano ZS (Malvem Instruments Ltd, Malvem, Worcestershire, UK) can be used to determine the particle size, the polydispersity index (PDI) and the zeta potential of the nanoparticle compositions in 1×PBS in determining particle size and 15 mM PBS in determining zeta potential.

[5] = pKa of nanoparticle compositions; assay type: physicochemical; details: Table 1c

% Dose Remaining 24 hr [1] | EE (%) [2] | Lipid % change purity in EtOH, 25° C., 96 h [3] | Lipid % change purity in EtOH, 37° C., 96 h [3] | PDI [4] | Size (nm) [4] | pKa [5] | SMILES | AUC (p/s*h) CD-1 mice 0.5 mpk (hEPO expression)
6.22% | 98.9% | 2.2% | 2% | 0.19 | 77.1 nm | 6.55 | CCCCCCCCCCCCCCN(CCCCCCCCCCCC(=O)OC)CCC1CCN(C(=O)CN(CCCCCCCCC)CCN(CCCCCCCCC)CCCCCCCCC)CC1 [Compound 116, Methyl 12-((2-(1-(N-(2-(dinonylamino)ethyl)-N-nonylglycyl)piperidin-4-yl)ethyl)(tetradecyl)amino)dodecanoate] | 1.01E+08 p/s*h
2.03% | 95.2% | 2.9% | 4.7% | 0.20 | 84.6 nm | 6.71 | CCCCCCCCCCCCCCN(CCCCCCCCCCCC(=O)OC)CC(=O)N1CCN(C(=O)CN(CCCCCCCCC)CCN(CCCCCCCCC)CCCCCCCCC)CC1 [Compound 117, Methyl 12-((2-(4-(N-(2-(dinonylamino)ethyl)-N-nonylglycyl)piperazin-1-yl)-2-oxoethyl)(tetradecyl)amino)dodecanoate] | 6.91E+07 p/s*h
0.86% | 99.5% | 2.7% | 2.9% | 0.20 | 79.8 nm | 6.81 | CCCCCCCCCCCCCCN(CCCCCCCCCCCC(=O)OC)CCC1CCN(C(=O)CN(CCCCCCCCC)CCN(CCCCCCCCC)CCCCCCCCC)C1 (centres unmarked) [Compound 127, Methyl 12-((2-(1-(N-(2-(dinonylamino)ethyl)-N-nonylglycyl)pyrrolidin-3-yl)ethyl)(tetradecyl)amino)dodecanoate] | 3.45E+07 p/s*h
3.93% | 98.4% | 0.1% | 9.6% | 0.19 | 81.5 nm | 6.83 | CCCCCCCCCCCCCCN(CCCCCCCC(=O)OCCCCC)CC(=O)N1CCN(C(=O)CN(CCCCCCCCC)CCN(CCCCCCCCC)CCCCCCCCC)CC1 [Compound 90, Pentyl 8-((2-(4-(N-(2-(dinonylamino)ethyl)-N-nonylglycyl)piperazin-1-yl)-2-oxoethyl)(tetradecyl)amino)octanoate] | 2.08E+07 p/s*h
0.05% | 99.1% | 1% | 4.1% | 0.23 | 77.1 nm | 6.44 | CCCCCCCCCCCCCCN(CCCOC(=O)CCCCCCCCC)CCC1CCCN(C(=O)CN(CCCCCCCCC)CCN(CCCCCCCCC)CCCCCCCCC)C1 (centres unmarked) [Compound 122, 3-((2-(1-(N-(2-(Dinonylamino)ethyl)-N-nonylglycyl)piperidin-3-yl)ethyl)(tetradecyl)amino)propyl decanoate] | 5.71E+07 p/s*h
0.09% | 98.7% | 0.6% | 2.2% | 0.24 | 87.0 nm | 6.76 | CCCCCCCCCCCCCCN(CCCOC(=O)CCCCCCCCC)CCC1CCN(C(=O)CN(CCCCCCCCC)CCN(CCCCCCCCC)CCCCCCCCC)C1 (centres unmarked) [Compound 126, 3-((2-(1-(N-(2-(Dinonylamino)ethyl)-N-nonylglycyl)pyrrolidin-3-yl)ethyl)(tetradecyl)amino)propyl decanoate] | 6.24E+07 p/s*h
52.19% | 97.1% | 6.9% | 12.2% | 0.20 | 68.0 nm | 4.93 | CCCCCCCCCN(CCCCCCCCC)CCOC(=O)C1CCC(C(=O)OCCN(CCCCCCCCC)CCN(CCCCCCCCC)CCCCCCCCC)CC1 (centres unmarked) [Compound 128, 1-(2-(Dinonylamino)ethyl) 4-(2-((2-(dinonylamino)ethyl)(nonyl)amino)ethyl) cyclohexane-1,4-dicarboxylate] | 3.04E+05 p/s*h
71.45% | 99.0% | 1.5% | 5.7% | 0.17 | 76.9 nm | 7.25 | CCCCCCCCCN(CCCCCCCCC)CCN(CCCCCCCCC)CC(=O)N1CCC(CCOC(=O)CN(CCCCCCCCC)CCCCCCCCC)C1 (centres unmarked) [Compound 103, 2-(1-(N-(2-(Dinonylamino)ethyl)-N-nonylglycyl)pyrrolidin-3-yl)ethyl Dinonylglycinate] | 1.82E+08 p/s*h
82.18% | 97.0% | 43.1% | 59.5% | 0.16 | 66.0 nm | 5.01 | CCCCCCCCCN(CCCCCCCCC)CCN(CCCCCCCCC)CC(=O)OC1CCC(OC(=O)CN(CCCCCCCCC)CCCCCCCCC)CC1 (centres unmarked) [Compound 115, 4-((N-(2-(Dinonylamino)ethyl)-N-nonylglycyl)oxy)cyclohexyl dinonylglycinate] | 2.31E+06 p/s*h
13.97% | 98.6% | 0.3% | 1.5% | 0.22 | 75.7 nm | 6.50 | CCCCCCCCCCCCCCN(CCCCCC(=O)OCCCCCCC)CCC1CCCN(C(=O)CN(CCCCCCCCC)CCN(CCCCCCCCC)CCCCCCCCC)C1 (centres unmarked) [Compound 121, Heptyl 6-((2-(1-(N-(2-(dinonylamino)ethyl)-N-nonylglycyl)piperidin-3-yl)ethyl)(tetradecyl)amino)hexanoate] | 2.84E+07 p/s*h
38.15% | 96.6% | 4% | 3.6% | 0.19 | 80.6 nm | 6.99 | CC/C=C\COC(=O)CCCN(CCCCCCCCC)CC(=O)N1CCN(C(=O)CN(CCCCCCCCC)CCN(CCCCCCCCC)CCCCCCCCC)CC1 [Compound 107, (Z)-Pent-2-en-1-yl 4-((2-(4-(N-(2-(dinonylamino)ethyl)-N-nonylglycyl)piperazin-1-yl)-2-oxoethyl)(nonyl)amino)butanoate] | 1.76E+08 p/s*h
38.43% | 98.1% | 2.6% | 9% | 0.23 | 77.2 nm | 6.64 | CCCCCCCCCN(CCCCCCCCC)CCN(CCCCCCCCC)CC(=O)N1CCC(CCOC(=O)CN(CCCCCCCCC)CCCCCCCCC)CC1 [Compound 114, 2-(1-(N-(2-(Dinonylamino)ethyl)-N-nonylglycyl)piperidin-4-yl)ethyl dinonylglycinate] | 7.86E+07 p/s*h
5.60% | 99.2% | −4.6% | −3.5% | 0.21 | 92.7 nm | 6.94 | CCCCCCCCCCCCCCN(CCCCCCCC(=O)OCCCCC)CCC1CCN(C(=O)CN(CCCCCCCCC)CCN(CCCCCCCCC)CCCCCCCCC)C1 (centres unmarked) [Compound 124, Pentyl 8-((2-(1-(N-(2-(dinonylamino)ethyl)-N-nonylglycyl)pyrrolidin-3-yl)ethyl)(tetradecyl)amino)octanoate] | 3.88E+07 p/s*h
